Laboratory results taken from PMC4575187 (PLoS ONE, 2015).
Values after ≈ are worked out from the molar mass of the structure shown. Ends that are not written are not given here.

What was measured:
MDCK cells [1] = details: 4 h
[2] = system: influenza A/Aichi/2/68 (H3N2); details: /Aichi/2/68, 48 h
[3] = system: H5N1 pseudovirus (HA and NA of A/Thailand/Kan353/2004)
H5N1 pseudovirus = format: cell-based, influenza A virus
H5 antigen = assay: Hemagglutination inhibition (HI) assay; details: HA-FP-1 at 50 μg/mL, chicken erythrocytes 0.5% v/v, 1 h at room temperature
MDCK cells [4] = details: previous work; cited from earlier work
[5] = system: influenza A/Aichi/2/68 (H3N2); assay: microbe, parasite or virus in culture; details: H3N2, MDCK, read-out: H3N2 IC50

What does the source list for GLFGAIAGFIKKGWPGLVKG-NH2 [HA-FP-3-1]?
CC50 with serum (MDCK cells [1]): 209.35 ± 0.21 µg/mL; CC50 without serum (MDCK cells [1]): 174.53 ± 1.90 µg/mL; H3N2 IC50 [2]: 27.57 ± 0.43 µg/mL

For “HA-FP-O: indigenous negatively charged fusion peptide of H3 hemagglutinin HA2, 20 residues (GLFGAIAGFIENGWEGMIDG)”, which “inhibition of H5N1 pseudovirus infection (in words)” value [3] is on record?
The value was “a lower or no inhibition”.

Which results are given for GLFGAIAGFIKNGWKGMIKG-NH2 [HA-FP-1]?
antiviral activity of HA-FP-1 in presence of HA-FP-O (H5N1 pseudovirus): completely abolished; IC50, infection of H5N1 influenza A pseudovirus on MDCK cells ([3]; pseudovirus (HA and NA of A/Thailand/Kan353/2004, 48 h)): 7.05 µg/mL; CC50 with serum (MDCK cells [1]): 143.65 ± 0.63 µg/mL; CC50 without serum (MDCK cells [1]): 111.70 ± 0.40 µg/mL; inhibition of agglutination of red blood cells (H5 antigen): unable to inhibit; CC50 against MDCK (MDCK cells [4]): 144.4 µg/mL; H3N2 IC50 [2]: 5.90 ± 0.62 µg/mL

Which “H3N2 IC50” value [2] does the source give for GLFGAIAGFIKGGWPGLVKG-NH2 [HA-FP-3] here?
The value was 34.91 ± 4.21 µg/mL.

With NC(=O)c1ncn([C@@H]2O[C@H](CO)[C@@H](O)[C@H]2O)n1 [Ribavirin] as the compound, how does the IC50 [5] read?
The IC50 was 0.63 µg/mL (≈ 2.58 µM).
